# Values quoted from earlier work, collected in patent US20110002851A1, “Cationic Colloidal Carriers for Delivery of Active Agents to the Blood-Brain Barrier in the Course of Neuroinflammatory Diseases” (MediGene AG, priority 2006, published 2011).
# Assays:
# [1] = tested on: T cell; details: micellar paclitaxel formulation
# [2] = tested on: MMP-9; details: LPS-stimulated astrocytes and microglia
Compound,T cell proliferation [1],expression of MMP-9 [2]
CC(=O)O[C@H]1C(=O)[C@@]2(C)[C@H]([C@H](OC(=O)c3ccccc3)[C@]3(O)C[C@H](OC(=O)[C@H](O)[C@@H](NC(=O)c4ccccc4)c4ccccc4)C(C)=C1C3(C)C)[C@]1(OC(C)=O)CO[C@@H]1C[C@@H]2O (racemic) [paclitaxel],dose-dependent suppression,–
"Cc1cn([C@H]2C[C@H](N=[N+]=[N-])[C@@H](CO)O2)c(=O)[nH]c1=O [AZT, zidovudine]",–,dose-dependently inhibited
"CC(C)(C)NC(=O)[C@@H]1CN(Cc2cccnc2)CCN1C[C@@H](O)C[C@@H](Cc1ccccc1)C(=O)N[C@H]1c2ccccc2C[C@H]1O [IDV, indinavir]",–,dose-dependently inhibited
